± gives the standard deviation of the averaged measurements.
How the values were obtained:
Experiment in all cases: level (log10 ratio to DMSO vehicle control); higher = higher biomarker level / cell amount than vehicle control
[1] = compound: FC(F)(I)C(F)(F)C(F)(F)C(F)(F)C(F)(F)C(F)(F)I [1,6-Diiodoperfluorohexane]; details: 6700 nM; in DMSO
Experimental: (§1)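 BioMAP Diversity Plus panel of 12 human primary cell co-culture systems (3C, 4H, LPS, SAg, BT, BF4T, BE3C, CASM3C, HDF3CGF, KF3CT, MyoF, Mphg). Compounds were added 1 h before stimulation and left for 24 h (MyoF 48 h; BT 72 h for soluble read-outs or 6 d for IgG). Biomarkers were read by ELISA, cytotoxicity by SRB, PBMC viability and proliferation by Alamar Blue. Each well value was divided by the mean of 8 DMSO control wells on the same plate and log10 transformed; duplicate blinded samples were tested at 4 concentrations.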

[2] = compound: OCC(F)(F)C(F)(F)C(F)(F)C(F)(F)C(F)(F)C(F)(F)C(F)(F)C(F)(F)C(F)(F)C(F)(F)C(F)(F)F [11:1 Fluorotelomer alcohol]; details: in DMSO
Experimental: as §1

[3] = compound: O=S(=O)(OCC(F)(F)F)C(F)(F)C(F)(F)C(F)(F)C(F)(F)F [2,2,2-Trifluoroethyl perfluorobutanesulfonate]; details: in DMSO
Experimental: as §1

Perfluoropinacol = compound: OC(C(F)(F)F)(C(F)(F)F)C(O)(C(F)(F)F)C(F)(F)F [Perfluoropinacol]; details: in DMSO
Experimental: as §1

[4] = compound: Cc1ccc(S(=O)(=O)OCC(F)(F)C(F)(F)C(F)(F)C(F)(F)C(F)(F)C(F)F)cc1 [1H,1H,7H-Perfluoroheptyl 4-methylbenzenesulfonate]; details: in DMSO
Experimental: as §1

[5] = compound: O=C(O)C(F)(F)C(F)(F)C(F)(F)C(F)(F)C(F)(F)C(F)(F)C(F)(F)F [Ammonium perfluorooctanoate]; details: in DMSO
Experimental: as §1

[6] = compound: OCC(F)(F)C(F)(F)C(F)(F)C(F)(F)C(F)(F)C(F)(F)C(F)(F)C(F)(F)CO [1H,1H,10H,10H-Perfluorodecane-1,10-diol]; details: in DMSO
Experimental: as §1

Test System | level (log10) [1] | level (log10) ([2]; 1100 nM) | level (log10) ([2]; 3300 nM) | level (log10) ([2]; 10000 nM) | level (log10) ([3]; 6700 nM) | level (log10) ([3]; 20000 nM) | level (log10) ([3]; 60000 nM) | level (log10) (Perfluoropinacol; 6700 nM) | level (log10) (Perfluoropinacol; 20000 nM) | level (log10) ([4]; 6700 nM) | level (log10) ([4]; 20000 nM) | level (log10) ([4]; 60000 nM) | level (log10) ([5]; 6700 nM) | level (log10) ([5]; 20000 nM) | level (log10) ([5]; 60000 nM) | level (log10) ([6]; 6700 nM) | level (log10) ([6]; 20000 nM) | level (log10) ([6]; 60000 nM)
CASM3C:LDLR | -0.028 | -0.0055 ± 0.0021 | -0.0095 ± 0.0064 | 0 ± 0.035 | -0.019 ± 0.062 | -0.0255 ± 0.013 | -0.0135 ± 0.0035 | -0.067 ± 0.0014 | -0.0505 ± 0.018 | -0.0095 ± 0.0092 | 0.007 ± 0.0099 | 0.0285 ± 0.022 | -0.0015 ± 0.018 | 0 ± 0.031 | 0.0085 ± 0.039 | -0.016 ± 0.035 | 0.0035 ± 0.016 | -0.048
lMphg:CCL3/MIP-1alpha | -0.016 | 0.014 ± 0.011 | -0.0165 ± 0.026 | -0.06 ± 0.021 | -0.025 ± 0.052 | -0.078 ± 0.054 | -0.119 ± 0.018 | 0.116 ± 0.047 | 0.116 ± 0.062 | -0.007 ± 0.0014 | 0.0145 ± 0.0021 | 0.0465 ± 0.033 | 0.003 ± 0.018 | 0.013 ± 0.024 | 0.0395 ± 0.029 | -0.0375 ± 0.005 | -0.02 ± 0.016 | -0.473
HDF3CGF:CD54/ICAM-1 | -0.343 | 0.001 ± 0.0071 | -0.0075 ± 0.021 | -0.012 ± 0.0014 | -0.0105 ± 0.018 | -0.0025 ± 0.022 | -0.0285 ± 0.028 | 0.012 ± 0.011 | 0.005 ± 0.018 | 0.0005 ± 0.016 | 0.0385 ± 0.042 | 0.026 ± 0.055 | -0.0145 ± 0.015 | -0.043 ± 0.0057 | -0.054 ± 0.016 | 0.002 ± 0.027 | 0.005 ± 0.0028 | -0.753
CASM3C:IL-6 | -0.063 | -0.0065 ± 0.00071 | -0.022 ± 0.025 | 0.005 ± 0.02 | -0.02 ± 0.033 | -0.0685 ± 0.0078 | -0.029 ± 0.024 | -0.0045 ± 0.025 | 0.033 ± 0.0085 | -0.035 ± 0.013 | -0.0435 ± 0.005 | -0.0155 ± 0.033 | -0.0035 ± 0.025 | -0.024 ± 0.048 | -0.018 ± 0.05 | -0.045 ± 0.027 | -0.071 ± 0.025 | -0.059
lMphg:CXCL8/IL-8 | 0.018 | 0.111 ± 0.042 | 0.127 ± 0.033 | 0.0445 ± 0.0064 | 0.031 | 0.025 ± 0.018 | 0.072 ± 0.068 | 0.0875 ± 0.061 | 0.161 ± 0.066 | 0.022 ± 0.0057 | 0 | 0.022 ± 0.057 | 0.0185 ± 0.026 | 0.099 ± 0.0057 | 0.222 ± 0.033 | 0.03 ± 0.035 | 0.0055 ± 0.018 | -0.19
lMphg:CD106/VCAM-1 | -0.025 | 0.0045 ± 0.005 | -0.001 ± 0.0014 | -0.0015 ± 0.0035 | -0.0355 ± 0.015 | -0.0215 ± 0.028 | -0.055 ± 0.024 | 0.0045 ± 0.0064 | -0.077 ± 0.023 | -0.0105 ± 0.029 | 0.0045 ± 0.0021 | 0 ± 0.0071 | 0.0135 ± 0.0035 | 0.023 ± 0.0014 | -0.0105 ± 0.0021 | -0.008 ± 0.0014 | -0.0075 ± 0.029 | -0.802
3C:CD142/Tissue Factor | -0.001 | 0.028 ± 0.024 | 0.074 ± 0.034 | 0.0865 ± 0.0092 | 0.0285 ± 0.046 | 0.011 ± 0.037 | -0.018 ± 0.034 | -0.0805 ± 0.026 | -0.158 ± 0.0035 | 0.0065 ± 0.015 | -0.0025 ± 0.021 | -0.0445 ± 0.036 | -0.0145 ± 0.0035 | -0.0045 ± 0.0021 | -0.036 ± 0.017 | -0.0585 ± 0.028 | -0.0685 ± 0.032 | -0.107
lMphg:IL-1alpha | 0.024 | 0.057 ± 0.025 | 0.039 ± 0.0085 | -0.12 ± 0.076 | -0.012 ± 0.0028 | -0.0425 ± 0.06 | -0.073 ± 0.0014 | 0.103 ± 0.021 | 0.149 ± 0.067 | -0.034 ± 0.017 | -0.036 ± 0.042 | 0.033 ± 0.099 | 0.0005 ± 0.026 | 0.0005 ± 0.0064 | 0.004 ± 0.014 | 0.002 ± 0.028 | 0.0055 ± 0.046 | -0.167
BE3C:PAI-I | 0.015 | -0.045 ± 0.057 | -0.0855 ± 0.054 | -0.0555 ± 0.07 | -0.0005 ± 0.011 | 0.003 ± 0.0085 | 0.014 ± 0.011 | -0.119 ± 0.016 | -0.189 ± 0.0085 | -0.0365 ± 0.019 | -0.0745 ± 0.016 | -0.057 ± 0.0099 | 0.014 ± 0.023 | 0.0045 ± 0.005 | 0.0255 ± 0.016 | 0.041 ± 0.0085 | -0.0655 ± 0.0035 | -0.192
CASM3C:Proliferation | -0.119 | 0.0145 ± 0.0078 | -0.0185 ± 0.005 | 0.0565 ± 0.0092 | 0.0265 ± 0.0064 | -0.018 ± 0.027 | -0.026 ± 0.03 | -0.02 ± 0.013 | -0.122 ± 0.035 | -0.009 ± 0.031 | 0.035 ± 0.064 | -0.0075 ± 0.025 | 0.0125 ± 0.018 | -0.007 ± 0.045 | -0.021 ± 0.0071 | -0.011 ± 0.021 | -0.0215 ± 0.00071 | -0.324
BE3C:uPA | -0.002 | -0.0155 ± 0.013 | -0.0405 ± 0.0078 | -0.0175 ± 0.0035 | -0.001 ± 0.0099 | -0.013 ± 0.0014 | -0.0135 ± 0.023 | -0.0055 ± 0.005 | -0.042 ± 0.011 | 0.01 ± 0.018 | -0.0155 ± 0.019 | -0.001 ± 0.0057 | 0.002 ± 0.0071 | -0.002 ± 0.0042 | 0.018 ± 0.0085 | -0.008 ± 0.011 | -0.0315 ± 0.0021 | -0.078
CASM3C:Serum Amyloid A | -0.008 | -0.0025 ± 0.044 | -0.0045 ± 0.0078 | 0.0045 ± 0.016 | -0.0625 ± 0.077 | -0.0375 ± 0.052 | 0.006 ± 0.031 | 0.0545 ± 0.0078 | 0.0595 ± 0.015 | -0.0445 ± 0.021 | -0.0515 ± 0.0078 | 0.0015 ± 0.06 | 0.0345 ± 0.022 | 0.015 ± 0.0057 | 0.0345 ± 0.012 | -0.011 ± 0.0042 | -0.016 ± 0.0057 | -0.059
MyoF:Collagen III | -0.527 | 0.011 ± 0.0085 | -0.0005 ± 0.00071 | -0.001 ± 0.0071 | -0.013 ± 0.0085 | -0.006 ± 0.016 | -0.0365 ± 0.005 | -0.0405 ± 0.011 | -0.136 ± 0.0014 | -0.0075 ± 0.00071 | -0.0495 ± 0.022 | -0.056 ± 0.02 | 0.0015 ± 0.00071 | -0.0095 ± 0.0064 | -0.0225 ± 0.0021 | -0.0305 ± 0.0092 | -0.042 ± 0.0099 | -0.378
KF3CT:CXCL10/IP-10 | -0.005 | 0.003 ± 0.0042 | -0.002 ± 0.0057 | 0.0085 ± 0.0035 | 0.0345 ± 0.022 | 0.033 ± 0.041 | 0.031 ± 0.042 | 0.0025 ± 0.0035 | -0.0205 ± 0.0064 | -0.009 ± 0.014 | -0.0195 ± 0.0078 | -0.016 ± 0.0099 | -0.0025 ± 0.00071 | -0.0045 ± 0.005 | -0.007 ± 0.0014 | -0.006 ± 0.0042 | -0.0195 ± 0.0078 | -0.104

From the supplement of paper PMC10331698
